The text below walks through data of patent publication US20040127518A1, “Modulation of anxiety through blockade of anandamide hydrolysis” (priority 2002, published 2004).

Structures are written as SMILES.

Assay [1] concerns the target T1, rat brain monoglyceride lipase (MGL) (Rattus norvegicus, UniProt Q8R431).
T1 sequence (Q8R431 1-303): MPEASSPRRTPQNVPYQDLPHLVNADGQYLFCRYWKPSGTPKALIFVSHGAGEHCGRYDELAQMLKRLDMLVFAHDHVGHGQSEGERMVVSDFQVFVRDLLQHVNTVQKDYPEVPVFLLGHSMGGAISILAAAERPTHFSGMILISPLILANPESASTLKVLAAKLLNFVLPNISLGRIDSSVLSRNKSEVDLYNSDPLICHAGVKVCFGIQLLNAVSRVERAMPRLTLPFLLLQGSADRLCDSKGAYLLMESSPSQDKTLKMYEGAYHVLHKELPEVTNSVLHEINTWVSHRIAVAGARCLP
The assay can be described thus: Cytosol MGL activity, 2-mono-oleoyl-glycerol as substrate.
Excerpt: We prepared cell fractions from rat brain homogenates, and assayed membrane FAAH activity and cytosol MGL activity using anandamide [ethanolamine-3H] (American Radiolabeled Chemicals, ARC (St. Louis Mo.), 60 Ci/mmol) and 2-mono-oleoyl-glycerol-[glycerol-1,2,3^−3H] (ARC, St. Louis Mo., 20 Ci/mmol), respectively, as substrates (Dinh, T. Proc. Natl. Acad. Sci. U.S.A. (2002)). We conducted [^3H]anandamide transport assays in human astrocytoma cells (Piomelli, D. et al., Proc. Natl. Acad. Sci. U.S.A., 96, 5802-5807 (1999)); CB1 and CB2 binding assays in rat cerebellar membranes and CB2-overexpressing Chinese hamster ovary cells (Receptor Biology-Perkin Elmer, Wellesley, Mass.), respectively, using [^3H]WIN-55212-2 (NEN-Dupont, Boston, Mass., 40-60 Ci/mmol) as a ligand (Devane, W. A. et al. Science, 258, 1946-1949 (1992)); cholinesterase assays with a commercial kit (Sigma, St. Louis, Mo.), using purified enzymes (electric eel acetylcholinesterase type V-S and horse serum cholinesterase; both from Sigma, St. Louis, Mo.) and following manufacturer's instructions.

Assay [2] addresses electric eel acetylcholinesterase (Electrophorus electricus, UniProt O42275).

Chain of electric eel acetylcholinesterase (O42275 whole entry): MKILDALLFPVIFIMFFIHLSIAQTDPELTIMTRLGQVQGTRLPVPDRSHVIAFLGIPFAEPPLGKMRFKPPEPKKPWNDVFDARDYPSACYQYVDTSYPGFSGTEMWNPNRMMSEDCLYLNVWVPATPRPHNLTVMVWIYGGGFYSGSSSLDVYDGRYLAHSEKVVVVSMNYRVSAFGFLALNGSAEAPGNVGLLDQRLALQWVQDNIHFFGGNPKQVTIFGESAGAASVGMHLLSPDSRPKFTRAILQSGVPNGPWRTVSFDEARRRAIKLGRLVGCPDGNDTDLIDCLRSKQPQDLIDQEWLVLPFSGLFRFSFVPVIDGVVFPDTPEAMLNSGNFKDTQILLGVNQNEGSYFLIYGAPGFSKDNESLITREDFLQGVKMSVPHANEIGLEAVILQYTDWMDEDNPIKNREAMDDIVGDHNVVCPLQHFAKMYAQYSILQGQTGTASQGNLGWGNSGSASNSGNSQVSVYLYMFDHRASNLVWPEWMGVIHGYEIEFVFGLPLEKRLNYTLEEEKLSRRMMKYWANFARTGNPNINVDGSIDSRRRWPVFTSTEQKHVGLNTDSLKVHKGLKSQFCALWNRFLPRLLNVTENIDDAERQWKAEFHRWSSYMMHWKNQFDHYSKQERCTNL

`CCCCNC(=O)Oc1ccc(OCc2ccccc2)cc1` [UCM532, n-Butylcarbamic acid 4-benzyloxyphenyl ester]: the “effect on MGL activity (in words)” value in assay [1] is reported as “did not affect”. Moreover, in assay [1] (Table 2), the “MGL SI (maximal concentration tested/IC50 for FAAH)” value is on record as “≧100” and the “MGL: maximal concentration of FAAH inhibitor tested” value is over 30 µM. Moreover, in assay [2], the “effect on acetylcholinesterase activity (in words)” value is “did not affect”. Moreover, the “AChE: maximal concentration of FAAH inhibitor tested” value in assay [2] (Table 2) was over 100 µM.
